Test results from US4120895A, “S-phenenyltris (iminocarbonyl) triisophthalic acid salts” (American Cyanamid Company, priority 1977, dated 1978).
Where a name gives a salt, the structure may show the parent alone.

What was measured:
activated human C1 = molecular target: T1, activated human C1 (Homo sapiens, UniProt P09871); experiment: Test, Code 026 (C1 inhibitor); assay type: biochemical
T1 construct: fluid-phase human C2 consumption in presence of C4
Source text: An active inhibitor protects C2 from C1 and C4; (ii) Test, Code 035 (C3-C9 inhibitor)-This test determines the ability of the late components of human complement (C3-C9) to lyse EAC 142 in the presence of appropriate dilutions of the test compound. An active inhibitor protects EAC 142 from lysis by human C3-C9; (iii) Test, Code 036 (C-Shunt inhibitor) - In this test human erythrocytes rendered fragile are lysed in autologous serum via the shunt pathway activated by cobra venom factor in the presence of appropriate dilutions of the test compound. Inhibition of the shunt pathway results in failure of lysis; (iv) Forssman Vasculitis Test -- Here, the well known complement dependent lesion, Forssman vasculitis, is produced in guinea pigs by intradermal injection of rabbit anti-Forssman antiserum. The lesion is measured in terms of diameter, edema and hemorrhage and the extent to which a combined index of these is inhibited by prior intraperitoneal injection of the test compound at 200 mg/kg is then reported, unless otherwise stated; (v) Forssman Shock Test -- Lethal shock is produced in guinea pigs by an i.v. injection of anti-Forssman antiserum and the harmonic mean death time of treated guinea pigs is compared with that of simultaneous controls; (vi) Complement Level Reduction Test -- In this test, the above dosed guinea pigs, or others, are bled for serum and the complement level is determined in undiluted serum by the capillary tube method of U.S. Pat. No. 3,876,376 and compared to undosed control guinea pigs; and (vii) Cap 50 Test -- Here, appropriate amounts of the test compound are added to a pool of guinea pig serum in vitro, after which the undiluted serum capillary tube assay referred to above is run. The concentration of compound inhibiting 50% is reported.

[1] = test system: Citrated sheep plasma (CSP); experiment: in vitro anti-coagulant activity (AC); assay type: biochemical
Method: The sheep RBC's, kept in suspension throughout the clotting incubation time, become enmeshed in the fibrin matrix if a clot forms. Upon centrifugation of the plate, untrapped RBC's form buttons, the sizes of which correspond to the degree of clot inhibition; this providing a measure of anti-coagulant activity (AC). Sodium heparin is used as a positive control and activity is reported in wells appearing in Table I.

T1 sequence (P09871 16-688): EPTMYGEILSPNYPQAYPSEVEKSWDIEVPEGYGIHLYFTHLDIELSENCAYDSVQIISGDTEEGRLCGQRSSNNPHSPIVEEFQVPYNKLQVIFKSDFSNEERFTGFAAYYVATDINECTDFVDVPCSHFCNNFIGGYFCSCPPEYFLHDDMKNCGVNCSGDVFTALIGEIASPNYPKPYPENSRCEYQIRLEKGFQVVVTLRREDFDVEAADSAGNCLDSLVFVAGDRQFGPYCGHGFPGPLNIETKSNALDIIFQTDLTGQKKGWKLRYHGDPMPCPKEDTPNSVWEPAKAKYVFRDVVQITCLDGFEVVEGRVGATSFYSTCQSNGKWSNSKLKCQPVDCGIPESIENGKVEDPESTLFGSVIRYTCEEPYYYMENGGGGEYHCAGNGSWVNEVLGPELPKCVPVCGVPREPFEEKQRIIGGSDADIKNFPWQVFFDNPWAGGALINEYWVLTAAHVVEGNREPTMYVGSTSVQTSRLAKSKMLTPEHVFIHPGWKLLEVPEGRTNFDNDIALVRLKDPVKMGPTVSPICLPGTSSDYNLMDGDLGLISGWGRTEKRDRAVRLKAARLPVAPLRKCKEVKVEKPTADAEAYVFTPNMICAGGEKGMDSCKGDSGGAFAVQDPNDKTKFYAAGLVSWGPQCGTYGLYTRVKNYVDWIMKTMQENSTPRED
T1 sequence (P00736 18-705 partner): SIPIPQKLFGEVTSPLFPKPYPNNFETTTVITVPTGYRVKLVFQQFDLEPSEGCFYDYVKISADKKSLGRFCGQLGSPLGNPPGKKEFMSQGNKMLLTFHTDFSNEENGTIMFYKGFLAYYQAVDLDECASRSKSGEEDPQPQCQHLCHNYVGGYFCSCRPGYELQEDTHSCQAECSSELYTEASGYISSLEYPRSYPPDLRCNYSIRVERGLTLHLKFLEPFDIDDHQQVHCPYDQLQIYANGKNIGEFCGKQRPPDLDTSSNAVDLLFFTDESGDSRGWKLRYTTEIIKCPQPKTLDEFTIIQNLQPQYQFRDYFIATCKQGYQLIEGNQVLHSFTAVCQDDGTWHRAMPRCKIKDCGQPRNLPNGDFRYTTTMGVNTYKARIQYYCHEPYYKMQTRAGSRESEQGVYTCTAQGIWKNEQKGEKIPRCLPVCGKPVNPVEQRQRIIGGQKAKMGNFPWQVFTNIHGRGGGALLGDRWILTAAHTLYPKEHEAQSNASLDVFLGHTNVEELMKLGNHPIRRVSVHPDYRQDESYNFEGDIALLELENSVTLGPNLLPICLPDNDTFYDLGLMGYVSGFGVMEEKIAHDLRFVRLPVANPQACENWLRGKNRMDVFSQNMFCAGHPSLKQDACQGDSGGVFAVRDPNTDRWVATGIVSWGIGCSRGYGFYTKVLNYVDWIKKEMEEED
T1 sequence (P02745 23-245 partner): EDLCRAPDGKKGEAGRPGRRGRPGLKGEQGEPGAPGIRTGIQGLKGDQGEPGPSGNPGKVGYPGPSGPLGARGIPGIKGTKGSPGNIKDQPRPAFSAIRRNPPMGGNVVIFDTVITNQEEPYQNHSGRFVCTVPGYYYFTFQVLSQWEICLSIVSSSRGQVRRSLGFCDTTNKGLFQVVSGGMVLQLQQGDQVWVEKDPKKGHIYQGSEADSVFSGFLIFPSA
T1 sequence (P02746 28-253 partner): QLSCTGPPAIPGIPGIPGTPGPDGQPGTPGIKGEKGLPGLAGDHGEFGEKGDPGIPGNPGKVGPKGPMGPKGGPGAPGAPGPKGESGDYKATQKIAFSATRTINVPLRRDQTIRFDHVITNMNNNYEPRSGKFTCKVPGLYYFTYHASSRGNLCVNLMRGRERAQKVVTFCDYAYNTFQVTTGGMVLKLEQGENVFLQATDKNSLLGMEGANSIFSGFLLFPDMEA
T1 sequence (P02747 29-245 partner): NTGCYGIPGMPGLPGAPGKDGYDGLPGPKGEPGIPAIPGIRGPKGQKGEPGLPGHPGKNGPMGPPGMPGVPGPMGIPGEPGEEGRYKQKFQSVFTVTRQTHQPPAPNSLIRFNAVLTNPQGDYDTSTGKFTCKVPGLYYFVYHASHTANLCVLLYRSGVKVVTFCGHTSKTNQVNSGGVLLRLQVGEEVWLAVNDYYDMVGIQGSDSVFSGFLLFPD

**Q.** For O=C(O)c1cc(C(=O)O)cc(C(=O)Nc2cc(NC(=O)c3cc(C(=O)O)cc(C(=O)O)c3)cc(NC(=O)c3cc(C(=O)O)cc(C(=O)O)c3)c2)c1 [5,5',5"-[s-Phenenyltris(iminocarbonyl)]triisophthalic acid hexasodium salt], which “Cl 026 Wells” value (activated human C1; Table I, two-fold serial dilution assay, higher well number indicates higher activity) is on record?
**A.** The value was “+3 Wells”.

**Q.** What about the “In Vitro Activity, Complement Inhibiting Activity (Wells) Code 026” value (activated human C1; Table II) of the same compound?
**A.** Its value is “+3 Wells”.

**Q.** What about the “Logarithmic Difference Expressed as Wells” value (activated human C1; Table II, Code 026 wells minus AC wells (base 2)) of the same compound?
**A.** Its value is “+5 Wells”.

**Q.** What about the “AC Wells” value ([1]; Table I, clot inhibition, recalcified citrated sheep plasma with sheep RBC, serial dilutions) of the same compound?
**A.** Its value is less than -2 Wells.

**Q.** And the “In Vitro Activity, Anti-Coagulant Activity (Wells) AC” value ([1]; Table II)?
**A.** The value was -2 Wells.
